Experiment [1] has as its system antibody (HYB 273-1). Description: Competitive ELISA for BAM on plates coated with BAM-OA by passive adsorption. The note with it: FIG. 3B. The format is binding, mice. The protocol:
i) Passive adsorption: A MaxiSorp™ microtitre plate was filled by a stationary dispensor with 200 μL/well BAM-OA (16.7 ng/mL) in coating buffer. After coating over night at 4° C. the plate was washed 4 times with de-ionised water and dried 30 min at 37° C. The plate was either used immediately or sealed with tape lid and stored at room temperature in the dark until use.
(§1) Standards (in Milli-Q® water) and samples (150 μL) were added to the hapten-coated plate followed by the addition of 50 μL antibody (HYB 273-1) diluted in 10×PBST (66.7 ng/mL). The plate was incubated for 1 hour. After washing 4 times with PBST, the plate was incubated with 200 μL/well RαM^HRP diluted 1:1000 in PBST. After a final 6 times wash with PBST, 200 μL/well TMB-Plus was added. The colour development was stopped after 10 minutes by adding 50 μL/well 1 M H2SO4 and the absorbance was read at 450 nm.
(§2) The standards were used to generate a semi-log graph based on the 4-parameter-logistic method (Rodbard, 1974: equation 1), followed by calculation of sample values. [formula]
To compare the performances of the two ELISA methods with antigen coated by passive adsorption to that by covalent immobilisation respectively, standard curves were generated with BAM standards ranging from 0.0156 to 2 μg/L on each surface using the identical assay procedures. The data were normalised by the % B/B0 transformation (eq 2). […]
(In general: In an ELISA, binding on a coated surface is turned into a signal by an enzyme label.)

Experiment [2] concerns antibody (HYB 273-1). Description: Competitive ELISA for BAM on plates covalently (photocoupled) coated with BAM-OA-AQ. The experiment is classed as binding, mice. The note with it: for cross-reactivity (IC50 of BAM divided by IC50 of analyte, times 100): analytes assayed up to 100 mg/L, antibody HYB 273-1. The protocol: A PolySorp™ microtitre plate was filled by a stationary dispensor with 200 μL/well BAM-OA-AQ (50 ng/mL) in 0.1×PBS. After being exposed to uv-light (300-400 nm) at 34° C. for 30 min, the plate was washed 4 times with de-ionised water and dried 30 min at 37° C. The plate was either used immediately or sealed with tape lid and stored at room temperature in the dark until use.
as §1, §2
To compare the performances of the two ELISA methods with antigen coated by passive adsorption to that by covalent immobilisation respectively, standard curves were generated with BAM standards ranging from 0.0156 to 2 μg/L on each surface using the identical assay procedures. The data were normalised by the % B/B0 transformation (eq 2). The normalised data were then plotted vs. BAM concentration and the four-parameter-logistic equation (eq 1) was fitted to the experimental points (FIG. 3).
As to detection limits (defined as the analyte concentration giving a 15% decrease in maximum signal: DL15) and sensitivity (defined as the analyte concentration giving a 50% decrease in maximum signal: IC50) the two surface performs almost equally. […] Further development of the BAM assay was therefore based on this technology and the following results are generated on PolySorp™ microtire plates covalently coated with BAM-OA-AQ as described herein in the Preparation of plates section

Experiment [3] can be described thus: Immunisation of mice with hapten-polymer carrier complex, raising of monoclonal antibodies. The note with it: hapten coupled to polymer carrier (ovalbumin). The experiment is classed as in vivo. The protocol:
Live mice were primed for immunisation by an intraperitoneal injection of live BCG-vaccine one month before immunisation. The antigen (hapten-OA complex), once adsorbed onto Al(OH)3, was injected intraperitonally and test bleeding were collected. When antibody titre's exceeded 1:2000, mice were considered ready for fusion and the method described by Köhler and Milstein (1975) was employed with minor modifications. Monoclonal antibodies were selected on basis of titre, affinity and specificity. Selected clones were recloned until monoclonality and stored frozen at −80° C.
Ten to twelve weeks old female Balb/cxCF1 F1-hybrid mice were used for immunisation. One month before immunisation they were primed with 0.2 mL live BCG-vaccine intraperitonally. The antigen (25×carrier/immunogen) was absorbed onto Al(OH)3 as an adjuvant. The total volume of vaccine per immunisation was 200 μL, containing 25× of antigen and […] of adjuvant. The antigen was injected intraperitonally with 2-weeks intervals. Test bleedings were collected 10 days after immunisation and assayed in ELISA.
When antibody titre's exceeded 1:2000, mice were regarded ready for fusion. The procedure as described by Köhler and Milstein (1975) was employed with minor modifications. Monoclonal antibodies were selected on basis of titre, affinity and specificity. […]

Where “and” joins values, the source holds several entries; their conditions need not be identical. Identical values can stand only once. Entries after “also recorded” stand apart in the source; their conditions may differ.

Regarding `NC(=O)c1c(Cl)cccc1Cl` [BAM, 2,6-dichlorobenzamide], the “DL15 (detection limit, analyte concentration giving a 15% decrease in maximum signal)” value with antibody (HYB 273-1) [1] (passive adsorption) was 0.045 µg/L; with antibody (HYB 273-1) [2] (photo catalysed covalent immobilisation, FIG. 3A) it was 0.02 µg/L. In addition, the “IC50 (analyte concentration giving a 50% decrease in maximum signal)” value is 0.144 ng/mL and 0.14 ng/mL with antibody (HYB 273-1) [1] (passively adsorbed plates (MaxiSorp)); 0.189 ng/mL and 0.19 ng/mL in the experiment with antibody (HYB 273-1) [2] (covalently immobilised plates (PolySorp, photocoupled), FIG. 3A).
On to “N-(5-carboxypentyl)-2,4-dichloro-3-amido aniline [EQ-0031]”, for which the “immunoresponse on immunisation with the hapten” value in experiment [3] was “good responses were generated; also recorded: generated good immunoresponse”.
As for `N#Cc1c(Cl)cccc1Cl` [dichlorbenil, dichlorobenzonitrile], in the experiment on antibody (HYB 273-1) [2], the “cross-reactivity (IC50 of BAM divided by IC50 of analyte, times 100)” value is on record as “no measurable cross-reactivity”.
The same measure, in the same setting: in the case of `NC(=O)c1ccc(Cl)cc1Cl` [2,4-dichlorobenzamide] it was 3.8%.
In the case of `O=C(CCCCCNC(=O)c1c(Cl)cccc1Cl)ON1C(=O)CCC1=O` [EQ-0025, succinimidyl-N-(2,6-dichlorobenzoyl)-6-amino-hexanoate], the “immunoresponse on immunisation with the hapten” value in experiment [3] is listed as “able to induce strong immunoresponse”.
